One assay has as its target mushroom tyrosinase. Description: Inhibition of tyrosinase activity. The assay is classed as biochemical. Conditions: L-tyrosine, 37° C., 20 minutes, absorbance 490 nm. How it is done:
The effect of New Materials 31 and 32 on inhibiting tyrosinase activity was evaluated.
Specifically, tyrosinase and tyrosine derived from mushroom were obtained from Sigma Chemical. Together with 150 μl of 0.1 M phosphate buffer (pH 6.5), 8 μl of mushroom tyrosinase (2,100 unit/ml) and 0.05 M concentration of L-tyrosine, arbutin and New Materials 31 and 32 were treated at the concentrations of following Table 3, respectively. The tyrosinase activity was evaluated by performing the enzyme reaction at 37° C. for 20 minutes and then measuring absorbance at 490 nm using a microplate reader (Bio-Rad 3550, Richmond, Calif., U.S.A.).

In a further assay the test system is Mel-Ab cell line. As to the kind of experiment: Inhibition of melanogenesis in Mel-Ab cells (method of Dooley). The assay is classed as cell-based, C57BL/6. Conditions: melanin by absorbance at 400 nm after 5 days. How it is done:
The effects of New Materials 31 and 32 on inhibiting melanogenesis were compared with Kojic acids which have been known to have an excellent skin whitening effect, and measured.
Specifically, the degree of melanogenesis in cells was measured by a method of Dooley. As the cell line, Mel-Ab cell line (Falcon, U.S.A.) derived from a skin pigment of C57BL/6 was used. Culturing was made under the condition of 37° C., 5% CO2 of a DMEM medium containing 10% placenta serum, 100 nM 12-O-tetradecanoylphorbol-13-acetate, and 1 nM Cholera Toxin. The test materials were treated in the manner where the cultured Mel-Ab cell was isolated with 0.25% trypsin-EDTA, and inoculated again with the same number (1×10^5 cells/well) in the 24-well plate, and then the medium was replaced with a medium containing the test materials for two days from the second day. As the test materials, 5 ppm, 10 ppm, 25 ppm and 50 ppm of New Materials 31 and 32, 25 ppm, 50 ppm and 100 ppm of Kojic acids and DMSO (control) were used. After 5 days, the test materials were treated with 1N-NaOH to dissolve melanin contained in the cell, and the amount of melanin was measured by measuring absorbance at 400 nm. The concentration (IC50) of the material necessary for reducing melanogenesis of melanocyte by half was calculated, and the results are shown in following Table 4.

The structures appear in SMILES notation.

Turning to `C[C@@H]1O[C@@H](OC[C@H]2O[C@@H](Oc3c(-c4ccc(O)c(O)c4)oc4cc(O)cc(O)c4c3=O)[C@H](O)[C@@H](OC(=O)/C=C/c3ccc(O)cc3)[C@@H]2O)[C@H](O)[C@H](O[C@@H]2O[C@H](CO)[C@@H](O)[C@H](O)[C@H]2O)[C@H]1O` [New Material 31, quercetin3-O-[3-O″-(E)-p-coumaroyl][β-D-glucopyranosyl-(1→3)-O-α-L-rhamnopyranosyl-(1→6)-O-β-D-glucopyranoside]], at mushroom tyrosinase, the “IC50 inhibiting tyrosinase activity” value was 16 ppm. This compound also had an IC50 inhibiting melanogenesis in the assay on Mel-Ab cell line of 23.5 ppm.
For the compound `C[C@@H]1O[C@@H](OC[C@H]2O[C@@H](Oc3c(-c4ccc(O)c(O)c4)oc4cc(O)cc(O)c4c3=O)[C@H](O)[C@@H](OC(=O)/C=C/c3ccc(O)cc3)[C@@H]2O)[C@H](O)[C@H](O)[C@H]1O` [New Material 32, quercetin3-O-[3-O″-(E)-p-coumaroyl][α-L-rhamnopyranosyl-(1→6)-O-β-D-glucopyranoside]], the “IC50 inhibiting tyrosinase activity” value at mushroom tyrosinase was found to be 19 ppm. Further, the IC50 inhibiting melanogenesis in the assay on Mel-Ab cell line was 23.5 ppm.
